Data as given in patent US20240197813A1, “TREATMENT OF DYSPHAGIA” (OT4B, priority 2021, published 2024).
“Also recorded” adds a separate entry of the source.

Legend:
[1] = test system: dysphagia in patient with neurodevelopmental disorder and hypothalamic disorder; assay: Case report PATIENT 2: daily intranasal oxytocin, VFSS and clinical symptoms; assay type: in vivo, human; conditions: 16 IU daily intranasal, 3 weeks
Description: PATIENT 2 was […]. They suffered from neurodevelopmental disorder and presented hypothalamic disorder.
The VFSS was abnormal including slow pharyngeal transit with pharyngeal residues and slow oesophageal transit with oesophageal reflux and stasis.
They received daily 16 IU of intranasal OXT during 3 weeks.

[2] = test system: infants with PWS under 6 months old; conditions: cited from earlier work
[3] = test system: dysphagia in patient with Prader-Willi syndrome; assay: Case report PATIENT 1: daily intranasal oxytocin, videofluoroscopic swallow study (VFSS); assay type: in vivo, human; conditions: PWS patient, 8 IU daily intranasal, 3 weeks
Description: PATIENT 1 was […] with Prader-Willi syndrome due to maternal uniparental disomy diagnosed soon after at birth.
The videofluoroscopic swallow study (VFSS) was abnormal with prolonged oesophageal transit and decreased peristalsis and abnormal closure of upper oesophageal sphincter.
They received 8IU of daily intranasal OXT during 3 weeks.

CC[C@H](C)[C@@H]1NC(=O)[C@H](Cc2ccc(O)cc2)NC(=O)[C@@H](N)CSSC[C@@H](C(=O)N2CCC[C@H]2C(=O)N[C@@H](CC(C)C)C(=O)NCC(N)=O)NC(=O)[C@H](CC(N)=O)NC(=O)[C@H](CCC(N)=O)NC1=O [oxytocin]
clinical symptoms of dysphagia [1]: improved clinical symptoms of dysphagia
oesophageal transit [1]: normalize
oropharyngeal initiation and synchronisation [1]: normalize oropharyngeal initiation and synchronization
stasis and reflux on VFSS after treatment [1]: neither stasis nor reflux
tolerability of treatment [1]: well tolerated
oesophageal transit ([1]; listed as OXT): normalization of oesophageal transit
oropharyngeal initiation and synchronisation ([1]; listed as OXT): normalization of oropharyngeal initiation and synchronisation
tolerability of intranasal administration [2]: well-tolerated
feeding and social skills ([2]; intranasal): significantly improves
VFSS overall [3]: improved VFSS
oesophageal transit (VFSS) [3]: improved oesophageal transit; also recorded: improve esophageal transit
peristalsis (VFSS) [3]: complete normalization of peristalsis
tolerability of treatment [3]: well tolerated
upper oesophageal sphincter closure (VFSS) [3]: normal upper oesophageal sphincter closure; also recorded: complete normalization
